Test systems include OVCAR-8 ovarian; DU-145 prostate; HCT-116 colon; K-562 leukemia; MCF7 breast; HCT-15 colon; SF-295 CNS; RPMI-8226 leukemia; HCC-2998 colon; RXF 393 renal.
Holding throughout (experiment): NCI anticancer screen, dose series, 48 h

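These data come from cells grown in 96-well plates and exposed to compound for 48 hours at five concentrations. GI50 marks 50% less growth. TGI denotes the concentration required for complete inhibition of growth.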

For the compound `CS(=O)(=O)OCC1OC(n2ccc(NC(=O)c3ccccc3)nc2=O)CC1OS(C)(=O)=O` (stereo not given), the TGI in the experiment on OVCAR-8 ovarian, with DU-145 prostate, in the experiment on HCT-116 colon, in the experiment on K-562 leukemia, with MCF7 breast and in the experiment with HCT-15 colon was greater than 100 µM throughout. Moreover, the TGI in the experiment on SF-295 CNS and in the experiment on RPMI-8226 leukemia was greater than 100 µM throughout.
`[Cl][Sn]([Cl])([c]1ccccc1)[c]1ccccc1`: the GI50 is 14.4 µM in the experiment with OVCAR-8 ovarian; 2.69 µM in the experiment with K-562 leukemia; 15 µM in the experiment on HCC-2998 colon; 10.3 µM with HCT-15 colon; 17 µM in the experiment on SF-295 CNS; 2.71 µM in the experiment with RPMI-8226 leukemia. In addition, in the experiment on RXF 393 renal, the GI50 is 2.79 µM. In addition, the TGI in the experiment on OVCAR-8 ovarian worked out at 27.8 µM; with K-562 leukemia it was 12.3 µM; with HCC-2998 colon, 28.5 µM; with HCT-15 colon, 23.2 µM; with SF-295 CNS, 33.5 µM; with RPMI-8226 leukemia, 18 µM.
For the compound `CC(=O)N1c2ccccc2C2=CC3C4C(=O)N(c5ccccc5)C(=O)C4C21C1C(=O)N(c2ccccc2)C(=O)C31` (stereo not given), the TGI in the experiment on OVCAR-8 ovarian was greater than 100 µM; in the experiment with HCT-116 colon, greater than 100 µM; with K-562 leukemia, greater than 100 µM; in the experiment on HCC-2998 colon it was greater than 100 µM; in the experiment with HCT-15 colon it was greater than 100 µM; in the experiment with SF-295 CNS it was 39.1 µM.
For `CCN(CC)CCCn1cnc2ncccc2c1=O`, the TGI in the experiment on OVCAR-8 ovarian, with HCT-116 colon, in the experiment with K-562 leukemia, in the experiment with SF-295 CNS and with RXF 393 renal was greater than 100 µM in each case.
With `CCCCCCCC(=O)NCC(O)CNC(=O)CCCCCCC`, the TGI in the experiment with OVCAR-8 ovarian, in the experiment with HCT-116 colon, in the experiment with K-562 leukemia, with HCC-2998 colon, in the experiment on HCT-15 colon and in the experiment with SF-295 CNS was greater than 100 µM each time. For the same compound, the TGI in the experiment on RPMI-8226 leukemia and with RXF 393 renal was greater than 100 µM each time.
`O=C(CCC(=O)Nc1cccc(Cl)c1)CC(=O)c1ccc(F)cc1`: the TGI was greater than 100 µM with OVCAR-8 ovarian; greater than 100 µM in the experiment with HCT-116 colon; greater than 100 µM in the experiment with K-562 leukemia; greater than 100 µM in the experiment with HCC-2998 colon; greater than 100 µM in the experiment with HCT-15 colon; 61.2 µM in the experiment on SF-295 CNS. The compound further displayed a TGI with RPMI-8226 leukemia greater than 100 µM.
As for `CN(C)CCN(C)CC1COC(C)(C)O1` (stereo not given), the TGI in the experiment with OVCAR-8 ovarian, with HCT-116 colon, in the experiment with K-562 leukemia, in the experiment on HCC-2998 colon, in the experiment on SF-295 CNS and in the experiment with RPMI-8226 leukemia was greater than 100 µM in each case. In addition, the TGI in the experiment on RXF 393 renal was greater than 100 µM.
Take `N#C/C(=N\Nc1ccc(Cl)cc1)C(=O)Nc1cc(-c2ccccc2)nn1-c1ccccc1`: the GI50 with OVCAR-8 ovarian is 2.96 µM; in the experiment with DU-145 prostate, 3.9 µM; in the experiment with HCT-116 colon, 2.7 µM; in the experiment with K-562 leukemia, 1.72 µM; in the experiment on HCC-2998 colon it was 3.74 µM; with HCT-15 colon, 2.14 µM. Moreover, the results for the GI50 with SF-295 CNS, in the experiment on RPMI-8226 leukemia and with RXF 393 renal were 2.86 µM, 1.77 µM and 2.06 µM, respectively. In addition, the TGI with OVCAR-8 ovarian, with DU-145 prostate, in the experiment with HCT-116 colon, with K-562 leukemia, in the experiment on HCC-2998 colon and in the experiment on HCT-15 colon was greater than 100 µM throughout. Besides, the TGI is greater than 100 µM with SF-295 CNS, 6.67 µM with RPMI-8226 leukemia and 6.32 µM in the experiment on RXF 393 renal.
For the compound `O=C(O)C1=CCCc2ccc3ccccc3c21`, the TGI in the experiment on OVCAR-8 ovarian, with HCT-116 colon, in the experiment on K-562 leukemia, in the experiment with HCT-15 colon, with SF-295 CNS and with RPMI-8226 leukemia was greater than 100 µM throughout. The compound further showed a TGI in the experiment with RXF 393 renal greater than 100 µM.
As to `Cn1c2c(c3ccccc31)CCN(CCN1CCN(c3ccccc3)CC1)C2=O`, the TGI with OVCAR-8 ovarian, in the experiment with HCT-116 colon, with K-562 leukemia, in the experiment with HCT-15 colon, in the experiment on SF-295 CNS and with RPMI-8226 leukemia was greater than 100 µM each time. Also, in the experiment with RXF 393 renal, the TGI came to 83.4 µM.
Take `COc1ccc(NC(=O)CC(=O)N2N=C(N(CCC#N)c3ccccc3Cl)CC2c2ccccc2)cc1` (stereo not given): the TGI in the experiment with OVCAR-8 ovarian, in the experiment on HCT-116 colon, in the experiment with K-562 leukemia, in the experiment on HCC-2998 colon, with HCT-15 colon and with SF-295 CNS was greater than 100 µM each time. The TGI in the experiment with RPMI-8226 leukemia and in the experiment on RXF 393 renal was greater than 100 µM in each case.
As to `Nc1nc2sc3ccccc3c(=O)n2n1`, the TGI with OVCAR-8 ovarian, in the experiment on HCT-116 colon, with K-562 leukemia, in the experiment on HCC-2998 colon, in the experiment on HCT-15 colon and in the experiment on SF-295 CNS was greater than 100 µM throughout. Moreover, the TGI with RPMI-8226 leukemia and in the experiment on RXF 393 renal was greater than 100 µM throughout.
As for `CC[O-].CC[O-].O=C([CH-]C(=O)c1cccnc1)c1ccccc1.O=C([CH-]C(=O)c1cccnc1)c1ccccc1.[Ti+4]`, the GI50 was 26.2 µM in the experiment on OVCAR-8 ovarian; greater than 100 µM with HCT-116 colon; 36.2 µM in the experiment with K-562 leukemia; greater than 100 µM in the experiment on HCC-2998 colon; 18.3 µM in the experiment on HCT-15 colon; 77.6 µM in the experiment with SF-295 CNS. For the same compound, the figures for the GI50 with RPMI-8226 leukemia and in the experiment with RXF 393 renal were 55.8 µM and 19.7 µM, respectively. Further, the TGI with OVCAR-8 ovarian, in the experiment on HCT-116 colon, in the experiment with K-562 leukemia, in the experiment on HCC-2998 colon, with HCT-15 colon and in the experiment on SF-295 CNS was greater than 100 µM each time. Also, the TGI with RPMI-8226 leukemia was greater than 100 µM; in the experiment on RXF 393 renal, 70.4 µM.
For the compound `COC(=O)C1CCC(Nc2ccc(C)cc2C)=N1` (stereo not given), the TGI with OVCAR-8 ovarian, in the experiment with HCT-116 colon, in the experiment on K-562 leukemia, in the experiment with HCC-2998 colon, with HCT-15 colon and in the experiment with SF-295 CNS was greater than 100 µM throughout. This compound had a TGI in the experiment on RPMI-8226 leukemia greater than 100 µM.

(Values after PubChem BioAssay (NCI).)
